Experimental data as given in ChEMBL document CHEMBL2439971, “Design, synthesis and antiproliferative evaluation of fluorenone analogs with DNA topoisomerase I inhibitory properties” (Bioorg Med Chem, 2013).
Active and inactive are the calls of the source. The rule behind the calls is not given here.

Assays:
[1] = Cytotoxicity against human EKVX cells at 10 uM after 48 hrs by sulforhodamine B assay relative to control; assay type: functional
T47D = assay: Cytotoxicity against human T47D cells at 10 uM after 48 hrs by sulforhodamine B assay relative to control; assay type: functional
NCI-H23 = assay: Cytotoxicity against human NCI-H23 cells at 10 uM after 48 hrs by sulforhodamine B assay relative to control; assay type: functional
OVCAR-3 = assay: Cytotoxicity against human OVCAR3 cells at 10 uM after 48 hrs by sulforhodamine B assay relative to control; assay type: functional
786-0 = assay: Cytotoxicity against human 786-0 cells at 10 uM after 48 hrs by sulforhodamine B assay relative to control; assay type: functional
HCC 2998 = assay: Cytotoxicity against human HCC2998 cells at 10 uM after 48 hrs by sulforhodamine B assay relative to control; assay type: functional
HOP-62 = assay: Cytotoxicity against human HOP62 cells at 10 uM after 48 hrs by sulforhodamine B assay relative to control; assay type: functional
MDA-MB-468 = assay: Cytotoxicity against human MDA-MB-468 cells at 10 uM after 48 hrs by sulforhodamine B assay relative to control; assay type: functional
RPMI-8226 = assay: Cytotoxicity against human RPMI8226 cells at 10 uM after 48 hrs by sulforhodamine B assay relative to control; assay type: functional
NCI-H460 = assay: Cytotoxicity against human NCI-H460 cells at 10 uM after 48 hrs by sulforhodamine B assay relative to control; assay type: functional
SNB-19 = assay: Cytotoxicity against human SNB19 cells at 10 uM after 48 hrs by sulforhodamine B assay relative to control; assay type: functional
NCI-H226 = assay: Cytotoxicity against human NCI-H226 cells at 10 uM after 48 hrs by sulforhodamine B assay relative to control; assay type: functional
KM12 = assay: Cytotoxicity against human KM12 cells at 10 uM after 48 hrs by sulforhodamine B assay relative to control; assay type: functional
UACC-257 = assay: Cytotoxicity against human UACC257 cells at 10 uM after 48 hrs by sulforhodamine B assay relative to control; assay type: functional
M14 = assay: Cytotoxicity against human M14 cells at 10 uM after 48 hrs by sulforhodamine B assay relative to control; assay type: functional
SR = assay: Cytotoxicity against human SR cells at 10 uM after 48 hrs by sulforhodamine B assay relative to control; assay type: functional
LOX IMVI = assay: Cytotoxicity against human LOXIMVI cells at 10 uM after 48 hrs by sulforhodamine B assay relative to control; assay type: functional
ACHN = assay: Cytotoxicity against human ACHN cells at 10 uM after 48 hrs by sulforhodamine B assay relative to control; assay type: functional
MCF7 = assay: Cytotoxicity against human MCF7 cells at 10 uM after 48 hrs by sulforhodamine B assay relative to control; assay type: functional
CCRF-CEM = assay: Cytotoxicity against human CCRF-CEM cells at 10 uM after 48 hrs by sulforhodamine B assay relative to control; assay type: functional
SK-MEL-2 = assay: Cytotoxicity against human SK-MEL-2 cells at 10 uM after 48 hrs by sulforhodamine B assay relative to control; assay type: functional
HT-29 = assay: Cytotoxicity against human HT-29 cells at 10 uM after 48 hrs by sulforhodamine B assay relative to control; assay type: functional
U-251 = assay: Cytotoxicity against human U251 cells at 10 uM after 48 hrs by sulforhodamine B assay relative to control; assay type: functional
OVCAR-8 = assay: Cytotoxicity against human OVCAR8 cells at 10 uM after 48 hrs by sulforhodamine B assay relative to control; assay type: functional
OVCAR-4 = assay: Cytotoxicity against human OVCAR4 cells at 10 uM after 48 hrs by sulforhodamine B assay relative to control; assay type: functional
OVCAR-5 = assay: Cytotoxicity against human OVCAR5 cells at 10 uM after 48 hrs by sulforhodamine B assay relative to control; assay type: functional
HCT-15 = assay: Cytotoxicity against human HCT15 cells at 10 uM after 48 hrs by sulforhodamine B assay relative to control; assay type: functional
COLO 205 = assay: Cytotoxicity against human COLO205 cells at 10 uM after 48 hrs by sulforhodamine B assay relative to control; assay type: functional
SF-539 = assay: Cytotoxicity against human SF539 cells at 10 uM after 48 hrs by sulforhodamine B assay relative to control; assay type: functional
SN12C = assay: Cytotoxicity against human SN12C cells at 10 uM after 48 hrs by sulforhodamine B assay relative to control; assay type: functional
MDA-MB-435 = assay: Cytotoxicity against human MDA-MB-435 cells at 10 uM after 48 hrs by sulforhodamine B assay relative to control; assay type: functional
Homo sapiens = organism: Homo sapiens; assay: Inhibition of telomerase (unknown origin) at 10 uM TRAP assay
DU-145 = assay: Cytotoxicity against human DU145 cells at 10 uM after 48 hrs by sulforhodamine B assay relative to control; assay type: functional
IGROV-1 = assay: Cytotoxicity against human IGROV1 cells at 10 uM after 48 hrs by sulforhodamine B assay relative to control; assay type: functional
A549 = assay: Cytotoxicity against human A549 cells at 10 uM after 48 hrs by sulforhodamine B assay relative to control; assay type: functional
SK-MEL-28 = assay: Cytotoxicity against human SK-MEL-28 cells at 10 uM after 48 hrs by sulforhodamine B assay relative to control; assay type: functional
SK-MEL-5 = assay: Cytotoxicity against human SK-MEL-5 cells at 10 uM after 48 hrs by sulforhodamine B assay relative to control; assay type: functional
K562 = assay: Cytotoxicity against human K562 cells at 10 uM after 48 hrs by sulforhodamine B assay relative to control; assay type: functional
CAKI-1 = assay: Cytotoxicity against human CAKI-1 cells at 10 uM after 48 hrs by sulforhodamine B assay relative to control; assay type: functional
Malme-3M = assay: Cytotoxicity against human MALME-3M cells at 10 uM after 48 hrs by sulforhodamine B assay relative to control; assay type: functional
MOLT-4 = assay: Cytotoxicity against human MOLT4 cells at 10 uM after 48 hrs by sulforhodamine B assay relative to control; assay type: functional
NCI-H322M = assay: Cytotoxicity against human NCI-H322M cells at 10 uM after 48 hrs by sulforhodamine B assay relative to control; assay type: functional
UACC-62 = assay: Cytotoxicity against human UACC62 cells at 10 uM after 48 hrs by sulforhodamine B assay relative to control; assay type: functional
MDA-MB-231 = assay: Cytotoxicity against human MDA-MB-231 cells at 10 uM after 48 hrs by sulforhodamine B assay relative to control; assay type: functional
PC-3 [2] = assay: Cytotoxicity against human PC3 cells at 10 uM after 48 hrs by sulforhodamine B assay relative to control; assay type: functional
NCI-H522 = assay: Cytotoxicity against human NCI-H522 cells at 10 uM after 48 hrs by sulforhodamine B assay relative to control; assay type: functional
HCT-116 = assay: Cytotoxicity against human HCT116 cells at 10 uM after 48 hrs by sulforhodamine B assay relative to control; assay type: functional
HL-60(TB) = assay: Cytotoxicity against human HL-60(TB) cells at 10 uM after 48 hrs by sulforhodamine B assay relative to control; assay type: functional
PC-3 [3] = assay: Cytotoxicity against human PC3 cells after 48 hrs by sulforhodamine B assay; assay type: functional, cell-based; conditions: PC-3, 48 h
TK-10 = assay: Cytotoxicity against human TK10 cells at 10 uM after 48 hrs by sulforhodamine B assay relative to control; assay type: functional
NCI/ADR-RES = assay: Cytotoxicity against human NCI/ADR-RES cells at 10 uM after 48 hrs by sulforhodamine B assay relative to control; assay type: functional
SW-620 = assay: Cytotoxicity against human SW620 cells at 10 uM after 48 hrs by sulforhodamine B assay relative to control; assay type: functional
SNB-75 = assay: Cytotoxicity against human SNB75 cells at 10 uM after 48 hrs by sulforhodamine B assay relative to control; assay type: functional
SF-295 = assay: Cytotoxicity against human SF295 cells at 10 uM after 48 hrs by sulforhodamine B assay relative to control; assay type: functional
BT-549 = assay: Cytotoxicity against human BT549 cells at 10 uM after 48 hrs by sulforhodamine B assay relative to control; assay type: functional
SF-268 = assay: Cytotoxicity against human SF268 cells at 10 uM after 48 hrs by sulforhodamine B assay relative to control; assay type: functional
UO-31 = assay: Cytotoxicity against human UO31 cells at 10 uM after 48 hrs by sulforhodamine B assay relative to control; assay type: functional
[4] = Cytotoxicity against human Hs 578T cells at 10 uM after 48 hrs by sulforhodamine B assay relative to control; assay type: functional
RXF 393 = assay: Cytotoxicity against human RXF393 cells at 10 uM after 48 hrs by sulforhodamine B assay relative to control; assay type: functional

Structure (SMILES): O=C(CN1CCCC1)Nc1ccc2c(c1)C(=O)c1cc(NC(=O)CN3CCCC3)ccc1-2
- Activity [1]: 100.27%
- Activity (T47D): 105.79%
- Activity (NCI-H23): 93.89%
- Activity (OVCAR-3): 113.24%
- Activity (786-0): 90.88%
- Activity (HCC 2998): 90.44%
- Activity (HOP-62): 88.02%
- Activity (MDA-MB-468): 99.42%
- Activity (RPMI-8226): 78.34%
- Activity (NCI-H460): 88.56%
- Activity (SNB-19): 96.18%
- Activity (NCI-H226): 104.39%
- Activity (KM12): 85.82%
- Activity (UACC-257): 106.11%
- Activity (M14): 103.87%
- Activity (SR): 74.15%
- Activity (LOX IMVI): 90.25%
- Activity (ACHN): 102.77%
- Activity (MCF7): 62.7%
- Activity (CCRF-CEM): 68.3%
- Activity (SK-MEL-2): 106.76%
- Activity (HT-29): 19.04%
- Activity (U-251): 81.2%
- Activity (OVCAR-8): 69.01%
- Activity (OVCAR-4): 71.07%
- Activity (OVCAR-5): 128.57%
- Activity (HCT-15): 99.02%
- Activity (COLO 205): 89.07%
- Activity (SF-539): 99.41%
- Activity (SN12C): 87.69%
- Activity (MDA-MB-435): 84.99%
- inhibition (Homo sapiens): inactive
- Activity (DU-145): 83.47%
- Activity (IGROV-1): 86.73%
- Activity (A549): 76.89%
- Activity (SK-MEL-28): 103.08%
- Activity (SK-MEL-5): 102.03%
- Activity (K562): 68.94%
- Activity (CAKI-1): 91.43%
- Activity (Malme-3M): 130.28%
- Activity (MOLT-4): 61.26%
- Activity (NCI-H322M): 73.45%
- Activity (UACC-62): 103.81%
- Activity (MDA-MB-231): 73.88%
- Activity (PC-3 [2]): 85.69%
- Activity (NCI-H522): 72.46%
- Activity (HCT-116): 79.74%
- Activity (HL-60(TB)): 84.5%
- IC50 (PC-3 [3]): 7.78 µM
- Activity (TK-10): 91.73%
- Activity (NCI/ADR-RES): 93.68%
- Activity (SW-620): 68.12%
- Activity (SNB-75): 88.15%
- Activity (SF-295): 86.51%
- Activity (BT-549): 101.36%
- Activity (SF-268): 107.06%
- Activity (UO-31): 69.71%
- Activity [4]: 100.68%
- Activity (RXF 393): 88.07%

Structure (SMILES): CCNCC(=O)Nc1ccc2c(c1)C(=O)c1cc(NC(=O)CNCC)ccc1-2
- Activity [1]: 90.83%
- Activity (T47D): 88.81%
- Activity (NCI-H23): 78.18%
- Activity (OVCAR-3): 90.91%
- Activity (786-0): 101.23%
- Activity (HCC 2998): 85.37%
- Activity (HOP-62): 71.54%
- Activity (MDA-MB-468): 63.55%
- Activity (RPMI-8226): 91.09%
- Activity (NCI-H460): 70.36%
- Activity (SNB-19): 95.76%
- Activity (NCI-H226): 99.42%
- Activity (KM12): 77.37%
- Activity (UACC-257): 97.32%
- Activity (M14): 90.37%
- Activity (SR): 81.75%
- Activity (LOX IMVI): 72.19%
- Activity (ACHN): 69.43%
- Activity (MCF7): 40.53%
- Activity (CCRF-CEM): 66.36%
- Activity (SK-MEL-2): 106.9%
- Activity (HT-29): 48.89%
- Activity (U-251): 55.71%
- Activity (OVCAR-8): 61.15%
- Activity (OVCAR-4): 69.72%
- Activity (OVCAR-5): 116.02%
- Activity (HCT-15): 95.25%
- Activity (COLO 205): 64.33%
- Activity (SF-539): 102.19%
- Activity (SN12C): 77.91%
- Activity (MDA-MB-435): 65.72%
- inhibition (Homo sapiens): inactive
- Activity (DU-145): 69.67%
- Activity (IGROV-1): 97.57%
- Activity (A549): 62.52%
- Activity (SK-MEL-28): 82.07%
- Activity (SK-MEL-5): 93.43%
- Activity (K562): 53.9%
- Activity (CAKI-1): 94.69%
- Activity (Malme-3M): 113.96%
- Activity (MOLT-4): 61.34%
- Activity (NCI-H322M): 67.74%
- Activity (UACC-62): 110.09%
- Activity (MDA-MB-231): 77.38%
- Activity (PC-3 [2]): 67.64%
- Activity (NCI-H522): 82.16%
- Activity (HCT-116): 64.57%
- Activity (HL-60(TB)): 95.53%
- IC50 (PC-3 [3]): 4.38 µM
- Activity (TK-10): 88.37%
- Activity (NCI/ADR-RES): 93.46%
- Activity (SW-620): 51.79%
- Activity (SNB-75): 92.67%
- Activity (SF-295): 91.26%
- Activity (BT-549): 123.2%
- Activity (SF-268): 78.21%
- Activity (UO-31): 89.54%
- Activity [4]: 91.4%
- Activity (RXF 393): 91.9%
